Patent US9073830B2 (Hyundai Pharm Co., Ltd., priority 2011, dated 2015)

Tests used:
human 11β-HSD1 = molecular target: T1, human 11β-HSD1 (Homo sapiens, UniProt P28845); assay: Enzyme activity analysis on human 11β-HSD1 (HTRF cortisol, liver microsomes); format: biochemical; conditions: first value of cell
T1 construct: 100 ug/ml human/mouse liver microsomes; from tissue; host or cells: human liver microsomes
In short: (§1)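 Cortisol generated by mouse or human liver microsome 11β-HSD1 during 2 h at 37° C., measured by HTRF competition (cryptate anti-cortisol antibody, d2-cortisol, 2 h room temperature) against a cortisol standard curve. IC50 from percent inhibition versus no-compound control.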

mouse 11β-HSD1 = molecular target: T2, mouse 11β-HSD1 (Mus musculus, UniProt P50172); assay: Enzyme activity analysis on mouse 11β-HSD1 (HTRF cortisol, liver microsomes); format: biochemical; conditions: second value of cell
T2 construct: 100 ug/ml human/mouse liver microsomes; from tissue; host or cells: mouse liver microsomes
T2 sequence (P50172 whole entry): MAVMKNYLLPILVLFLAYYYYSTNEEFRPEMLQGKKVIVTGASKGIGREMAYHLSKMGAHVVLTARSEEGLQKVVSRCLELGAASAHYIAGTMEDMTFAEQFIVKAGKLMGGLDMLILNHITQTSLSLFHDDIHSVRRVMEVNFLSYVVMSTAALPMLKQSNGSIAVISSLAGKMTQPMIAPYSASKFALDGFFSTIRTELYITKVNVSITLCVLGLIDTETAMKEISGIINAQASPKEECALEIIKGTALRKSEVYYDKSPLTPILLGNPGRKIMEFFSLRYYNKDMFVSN
In short: as §1

T1 sequence (P28845 whole entry): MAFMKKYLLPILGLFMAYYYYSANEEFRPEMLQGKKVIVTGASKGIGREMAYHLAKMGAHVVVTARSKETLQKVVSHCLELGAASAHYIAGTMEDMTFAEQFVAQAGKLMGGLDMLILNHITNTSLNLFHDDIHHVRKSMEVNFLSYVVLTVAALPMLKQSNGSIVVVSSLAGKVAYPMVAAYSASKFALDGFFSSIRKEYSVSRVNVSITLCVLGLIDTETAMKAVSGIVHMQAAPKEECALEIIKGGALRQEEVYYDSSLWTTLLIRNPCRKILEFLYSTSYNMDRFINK

| SMILES | IC50 (human 11β-HSD1) [µM] | IC50 (mouse 11β-HSD1) [µM] |
| --- | --- | --- |
| CC(C)(NS(=O)(=O)c1ccccc1)C(=O)NC1C2CC3CC(C2)CC1C3 (stereo not shown) [compound 1, N-(adamantane-2-yl)-2-methyl-2-(phenylsulfonamido)propanamide] | 0.04 | 0.19 |
| CN(C(C)(C)C(=O)NC1C2CC3CC1CC(O)(C3)C2)S(=O)(=O)c1ccccc1Br (stereo not shown) [compound 206, N-(5-hydroxyadamantane-2-yl)-2-(2-bromo-N-methylphenylsulfonamido)-2-methylpropanamide] | 0.005 | 0.041 |
| CCN(C(C)(C)C(=O)NC1C2CC3CC1CC(C(N)=O)(C3)C2)S(=O)(=O)c1cccc(Cl)c1C (stereo not shown) [compound 215] | 0.004 | 0.284 |
| CC(C)(NS(=O)(=O)c1ccccc1C(N)=O)C(=O)NC1C2CC3CC(C2)CC1C3 (stereo not shown) [compound 56] | 0.532 | > 2.5 |
| NC(=O)C12CC3CC(C1)C(NC(=O)C1(NS(=O)(=O)c4cccc5cccnc45)CCCC1)C(C3)C2 (stereo not shown) [compound 168, N-4-(1-(quinoline-8-sulfonamido)cyclopentanecarboxyamido)adamantane-1-carboxyamide] | 0.022 | 0.007 |
| CC(C)(NS(=O)(=O)c1cccc(C(F)(F)F)c1)C(=O)NC1C2CC3CC1CC(C(N)=O)(C3)C2 (stereo not shown) [compound 127] | 0.062 | 0.053 |
| CCN(C(C)(C)C(=O)NC1C2CC3CC1CC(C(N)=O)(C3)C2)S(=O)(=O)c1ccccc1[N+](=O)[O-] (stereo not shown) [compound 216] | 0.009 | 0.974 |
| NC(=O)C12CC3CC(C1)C(NC(=O)C1(NS(=O)(=O)c4cccc(Cl)c4Cl)CCCCC1)C(C3)C2 (stereo not shown) [compound 183, N-4-(1-(2,3-dichlorophenylsulfonamido)cyclohexanecarboxyamido)adamantane-1-carboxyamide] | 0.017 | 0.044 |
| CC(C)(NS(=O)(=O)c1cccc2cccnc12)C(=O)NC1C2CC3CC1CC(O)(C3)C2 (stereo not shown) [compound 75, N-(5-hydroxyadamantane-2-yl)-2-methyl-2-(8-quinolinesulfonamido)propanamide] | 0.006 | 0.005 |
| NC(=O)C12CC3CC(C1)C(NC(=O)C1(NS(=O)(=O)c4ccccc4N)CCC1)C(C3)C2 (stereo not shown) [compound 221, N-4-(1-(2-aminophenylsulfonamido)cyclobutanecarboxyamido)adamantane-1-carboxyamide] | 0.079 | 0.151 |
| NC(=O)C12CC3CC(C1)C(NC(=O)C1(NS(=O)(=O)c4ccccc4Cl)CC1)C(C3)C2 (stereo not shown) [compound 132, N-4-(1-(2-chlorophenylsulfonamido)cyclopropanecarboxyamido)adamantane-1-carboxyamide] | 0.037 | 0.148 |
| CC(C)(NS(=O)(=O)c1ccccc1Br)C(=O)NC1C2CC3CC(C2)CC1C3 (stereo not shown) [compound 12, N-(adamantane-2-yl)-2-methyl-2-(2-bromophenylsulfonamido)propanamide] | 0.02 | 0.051 |
| Cc1ccc(F)cc1S(=O)(=O)NC1(C(=O)NC2C3CC4CC2CC(C(N)=O)(C4)C3)CCC1 (stereo not shown) [compound 165, N-4-(1-(2-methyl-5-fluorophenylsulfonamido)cyclobutanecarboxyamido)adamantane-1-carboxyamide] | 0.101 | 0.29 |
| Cc1ccc(F)c(S(=O)(=O)NC2(C(=O)NC3C4CC5CC3CC(C(N)=O)(C5)C4)CCC2)c1 (stereo not shown) [compound 164, N-4-(1-(2-fluoro-5-methylphenylsulfonamido)cyclobutanecarboxyamido)adamantane-1-carboxyamide] | 0.058 | 0.298 |
| NC(=O)C12CC3CC(C1)C(NC(=O)C1(NS(=O)(=O)c4ccccc4Cl)CCCC1)C(C3)C2 (stereo not shown) [compound 170, N-4-(1-(2-chlorophenylsulfonamido)cyclopentanecarboxyamido)adamantane-1-carboxyamide] | 0.011 | 0.012 |
| CC(C)(NS(=O)(=O)c1ccccc1F)C(=O)NC1C2CC3CC1CC(O)(C3)C2 (stereo not shown) [compound 69, N-(5-hydroxyadamantane-2-yl)-2-methyl-2-(2-fluorophenylsulfonamido)propanamide] | 0.118 | 0.258 |
| Cc1ccccc1S(=O)(=O)N(C)C(C)(C)C(=O)NC1C2CC3CC1CC(O)(C3)C2 (stereo not shown) [compound 207, N-(5-hydroxyadamantane-2-yl)-2-(2-methyl-N-methylphenylsulfonamido)-2-methylpropanamide] | 0.006 | 0.107 |
| O=C(NC1C2CC3CC(C2)CC1C3)C1(NS(=O)(=O)c2cccc3cccnc23)CCC1 (stereo not shown) [compound 141, N-(adamantane-2-yl)-1-(quinoline-8-sulfonamido)cyclobutanecarboxyamide] | 0.139 | 0.208 |
| Cc1ccc(F)c(S(=O)(=O)NC(C)(C)C(=O)NC2C3CC4CC2CC(C(N)=O)(C4)C3)c1 (stereo not shown) [compound 94, N-4-(2-(2-fluoro-5-methylphenylsulfonamido)-2-methylpropanamido)adamantane-1-carboxyamide] | 0.013 | 0.123 |

Next, values leading:

| IC50 (human 11β-HSD1) [µM] | IC50 (mouse 11β-HSD1) [µM] | SMILES |
| --- | --- | --- |
| 0.433 | 1.02 | CC(C)(NS(=O)(=O)c1cccc(Br)c1)C(=O)NC1C2CC3CC(C2)CC1C3 (stereo not shown) [compound 64, N-(adamantane-2-yl)-2-methyl-2-(3-bromophenylsulfonamido)propanamide] |
| 0.023 | 0.143 | Cc1c(Cl)cccc1S(=O)(=O)N(C)C(C)(C)C(=O)NC1C2CC3CC(C2)CC1C3 (stereo not shown) [compound 200, N-(adamantane-2-yl)-2-(3-chloro-2-methyl-N-methylphenylsulfonamido)-2-methylpropanamide] |
| 0.01 | 0.039 | CN(C(C)(C)C(=O)NC1C2CC3CC1CC(O)(C3)C2)S(=O)(=O)c1cccc(Cl)c1Cl (stereo not shown) [compound 203, N-(5-hydroxyadamantane-2-yl)-2-(2,3-dichloro-N-methylphenylsulfonamido)-2-methylpropanamide] |
| > 2.5 | > 2.5 | CC(C)NC(=O)C12CC3CC(C1)C(NC(=O)C(C)(C)NS(=O)(=O)c1ccccc1Br)C(C3)C2 (stereo not shown) [compound 228, 4-[2-(2-bromo-benzenesulfonylamino)-2-methyl-propionylamino]-adamantane-1-carboxylic acid isopropylamide] |
| 1.29 | 1.26 | CCCc1ccc(S(=O)(=O)NC(C)(C)C(=O)NC2C3CC4CC(C3)CC2C4)cc1 (stereo not shown) [compound 67, N-(adamantane-2-yl)-2-methyl-2-(4-propylphenylsulfonamido)propanamide] |
| > 2.5 | > 2.5 | CC(C)(NS(=O)(=O)c1ccccc1Br)C(=O)NC1C2CC3CC1CC(C(=O)NC1CC1)(C3)C2 (stereo not shown) [compound 229, 4-[2-(2-bromo-benzenesulfonylamino)-2-methyl-propionylamino]-adamantane-1-carboxylic acid cyclopropylamide] |
| 0.045 | 1.24 | CC(C)(NS(=O)(=O)c1cc(C(F)(F)F)ccc1C(F)(F)F)C(=O)NC1C2CC3CC1CC(C(N)=O)(C3)C2 (stereo not shown) [compound 109, N-4-(2-(2,5-bistrifluoromethylphenylsulfonamido)-2-methylpropanamido)adamantane-1-carboxyamide] |
| 0.183 | 1.3 | CC(C)(NS(=O)(=O)c1ccc(Cl)c(Cl)c1Cl)C(=O)NC1C2CC3CC(C2)CC1C3 (stereo not shown) [compound 51, N-(adamantane-2-yl)-2-methyl-2-(2,3,4-trichlorophenylsulfonamido)propanamide] |
| 0.008 | 0.002 | CN(C(C)(C)C(=O)NC1C2CC3CC1CC(C(N)=O)(C3)C2)S(=O)(=O)c1c(Cl)cccc1Cl (stereo not shown) [compound 192, N-4-(2-(2,6-dichloro-N-methylphenylsulfonamido)-2-methylpropanamido)adamantane-1-carboxyamide] |
| 0.042 | 0.02 | NC(=O)C12CC3CC(C1)C(NC(=O)C1(NS(=O)(=O)c4cccc5cccnc45)CC1)C(C3)C2 (stereo not shown) [compound 135, N-4-(1-(quinoline-8-sulfonamido)cyclopropanecarboxyamido)adamantane-1-carboxyamide] |
| 1.27 | > 2.5 | CC(C)(NS(=O)(=O)c1cc(Cl)cc(Cl)c1)C(=O)NC1C2CC3CC(C2)CC1C3 (stereo not shown) [compound 26, N-(adamantane-2-yl)-2-methyl-2-(3,5-dichlorophenylsulfonamido)propanamide] |
| 0.005 | 0.004 | CN(C1(C(=O)NC2C3CC4CC2CC(C(N)=O)(C4)C3)CCC1)S(=O)(=O)c1ccccc1N (stereo not shown) [compound 222, N-4-(1-(N-methyl-2-aminophenylsulfonamido)cyclobutanecarboxyamido)adamantane-1-carboxyamide] |
| 1.32 | 1.68 | CC(C)(NS(=O)(=O)c1ccc(OC(F)(F)F)cc1)C(=O)NC1C2CC3CC(C2)CC1C3 (stereo not shown) [compound 4, N-(adamantane-2-yl)-2-methyl-2-(4-(trifluoromethoxy)phenylsulfonamido)propanamide] |
| 0.018 | 0.006 | NC(=O)C12CC3CC(C1)C(NC(=O)C1(NS(=O)(=O)c4cccc5cccnc45)CCCCC1)C(C3)C2 (stereo not shown) [compound 182, N-4-(1-(quinoline-8-sulfonamido)cyclohexanecarboxyamido)adamantane-1-carboxyamide] |
| 0.006 | 1.44 | CCN(C(C)(C)C(=O)NC1C2CC3CC1CC(C(N)=O)(C3)C2)S(=O)(=O)c1ccccc1C(F)(F)F (stereo not shown) [compound 210, N-4-(2-(2-trifluoromethyl-N-ethylphenylsulfonamido)-2-methylpropanamido)adamantane-1-carboxyamide] |
| 0.061 | 0.41 | NC(=O)C12CC3CC(C1)C(NC(=O)C1(NS(=O)(=O)c4ccccc4C(F)(F)F)CCC1)C(C3)C2 (stereo not shown) [compound 157, N-4-(1-(2-trifluoromethylphenylsulfonamido)cyclobutanecarboxyamido)adamantane-1-carboxyamide] |
